Test results: ChEMBL document CHEMBL1144049, “Functional assay and structure-activity relationships of new third-generation P-glycoprotein inhibitors” (Bioorg Med Chem, 2008)

How the values were obtained:
[1] = target: T1, ATP-dependent translocase ABCB1 (Homo sapiens, UniProt P08183); experiment: Inhibition of human Pgp in A2780 cells after 30 mins by calcein AM assay; assay type: cell-based
[2] = target: T1, ATP-dependent translocase ABCB1; experiment: Inhibition of human Pgp in A2780 cells after 30 mins by Hoechst 33342 assay; assay type: cell-based
[3] = target: ATP-dependent translocase ABCB1 (Mus musculus, UniProt P06795); experiment: Inhibition of mouse Pgp in EMT6/AR1.0 cells after 1 hr by daunorubicin accumulation assay; assay type: cell-based
[4] = target: T1, ATP-dependent translocase ABCB1
Description: Inhibition of Pgp by daunorubicin accumulation assay

Chain of ATP-dependent translocase ABCB1 (Mus musculus, UniProt P06795) (P06795 whole entry): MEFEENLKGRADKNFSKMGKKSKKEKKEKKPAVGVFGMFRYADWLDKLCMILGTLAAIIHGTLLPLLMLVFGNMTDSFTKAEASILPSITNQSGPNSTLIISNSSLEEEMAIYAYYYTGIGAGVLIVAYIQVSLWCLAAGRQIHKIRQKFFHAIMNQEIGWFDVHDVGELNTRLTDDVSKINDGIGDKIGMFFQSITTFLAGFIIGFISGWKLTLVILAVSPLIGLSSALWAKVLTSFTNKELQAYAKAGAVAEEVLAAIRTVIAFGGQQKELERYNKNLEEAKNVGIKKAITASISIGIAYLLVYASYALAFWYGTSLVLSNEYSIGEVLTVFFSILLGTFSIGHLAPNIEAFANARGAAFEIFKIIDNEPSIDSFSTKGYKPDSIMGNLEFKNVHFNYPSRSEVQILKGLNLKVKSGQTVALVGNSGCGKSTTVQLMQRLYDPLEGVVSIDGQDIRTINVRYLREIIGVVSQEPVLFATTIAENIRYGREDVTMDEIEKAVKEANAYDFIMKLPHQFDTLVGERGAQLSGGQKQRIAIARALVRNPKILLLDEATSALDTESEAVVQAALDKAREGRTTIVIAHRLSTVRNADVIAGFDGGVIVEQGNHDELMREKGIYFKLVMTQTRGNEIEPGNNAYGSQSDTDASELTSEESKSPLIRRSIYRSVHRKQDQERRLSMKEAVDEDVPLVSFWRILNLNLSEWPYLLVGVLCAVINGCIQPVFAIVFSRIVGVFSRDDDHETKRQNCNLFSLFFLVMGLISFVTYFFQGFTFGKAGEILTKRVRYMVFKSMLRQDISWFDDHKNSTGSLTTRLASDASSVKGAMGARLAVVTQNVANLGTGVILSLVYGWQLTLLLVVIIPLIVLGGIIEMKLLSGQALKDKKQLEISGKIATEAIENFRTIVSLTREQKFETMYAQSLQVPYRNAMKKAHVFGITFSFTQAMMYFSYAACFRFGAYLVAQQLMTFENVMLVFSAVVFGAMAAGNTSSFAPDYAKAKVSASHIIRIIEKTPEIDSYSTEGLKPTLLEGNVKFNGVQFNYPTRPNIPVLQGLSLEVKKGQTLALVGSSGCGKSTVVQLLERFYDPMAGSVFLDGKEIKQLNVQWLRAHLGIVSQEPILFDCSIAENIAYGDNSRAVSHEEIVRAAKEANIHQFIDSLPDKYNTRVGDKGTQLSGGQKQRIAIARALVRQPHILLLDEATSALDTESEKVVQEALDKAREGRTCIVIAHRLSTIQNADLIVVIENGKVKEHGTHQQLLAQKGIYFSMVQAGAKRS
T1 sequence (P08183 whole entry): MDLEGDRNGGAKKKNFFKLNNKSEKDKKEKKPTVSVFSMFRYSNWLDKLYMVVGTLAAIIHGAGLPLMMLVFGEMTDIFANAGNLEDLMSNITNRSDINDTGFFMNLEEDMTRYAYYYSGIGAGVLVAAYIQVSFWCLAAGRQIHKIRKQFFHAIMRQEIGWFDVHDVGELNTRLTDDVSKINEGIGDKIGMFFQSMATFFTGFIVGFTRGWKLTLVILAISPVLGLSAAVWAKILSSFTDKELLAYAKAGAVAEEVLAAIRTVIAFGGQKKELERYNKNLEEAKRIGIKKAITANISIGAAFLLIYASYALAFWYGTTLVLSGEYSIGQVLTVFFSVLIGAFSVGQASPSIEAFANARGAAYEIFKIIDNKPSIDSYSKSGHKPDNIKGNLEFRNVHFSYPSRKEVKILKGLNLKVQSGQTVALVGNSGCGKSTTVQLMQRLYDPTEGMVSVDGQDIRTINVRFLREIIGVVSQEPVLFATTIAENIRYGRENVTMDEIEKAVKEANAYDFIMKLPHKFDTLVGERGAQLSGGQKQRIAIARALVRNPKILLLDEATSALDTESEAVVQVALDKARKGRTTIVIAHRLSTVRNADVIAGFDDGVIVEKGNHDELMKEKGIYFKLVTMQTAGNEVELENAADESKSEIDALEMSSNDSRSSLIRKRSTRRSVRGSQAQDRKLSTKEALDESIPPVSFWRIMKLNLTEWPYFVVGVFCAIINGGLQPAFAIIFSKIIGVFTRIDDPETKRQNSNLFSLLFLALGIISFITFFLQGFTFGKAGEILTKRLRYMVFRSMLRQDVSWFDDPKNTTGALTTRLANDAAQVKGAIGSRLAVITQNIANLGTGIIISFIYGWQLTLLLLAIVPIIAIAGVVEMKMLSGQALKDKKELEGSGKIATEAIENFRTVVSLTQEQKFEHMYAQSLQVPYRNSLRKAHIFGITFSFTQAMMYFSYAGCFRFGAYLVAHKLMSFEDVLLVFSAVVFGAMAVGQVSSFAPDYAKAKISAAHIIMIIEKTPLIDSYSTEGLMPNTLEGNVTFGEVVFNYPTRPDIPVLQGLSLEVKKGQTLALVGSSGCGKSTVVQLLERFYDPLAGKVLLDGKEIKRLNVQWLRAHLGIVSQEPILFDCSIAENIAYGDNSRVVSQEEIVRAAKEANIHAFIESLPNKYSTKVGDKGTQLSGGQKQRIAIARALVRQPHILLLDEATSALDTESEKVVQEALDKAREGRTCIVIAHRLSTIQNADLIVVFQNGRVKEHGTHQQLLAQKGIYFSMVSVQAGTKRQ

Compound | IC50 [1] [nM] | IC50 [2] [nM] | IC50 [3] [nM] | IC50 [4] [nM]
O=C(Nc1ccc(CCN2CCc3ccccc3C2)cc1)c1ccccc1[N+](=O)[O-] | 12300 | 13500 |  | 
COc1cc2c(cc1OC)CN(CCc1ccc(NC(=O)c3ccnc4ccccc34)cc1)CC2 | 2820 | 2240 |  | 
COc1cc2c(cc1OC)CN(CCc1ccc(NC(=O)c3cnc4ccccc4n3)cc1)CC2 | 490 | 209 |  | 
COc1cc2c(cc1OC)CN(CCc1ccc(NC(=O)c3ccccc3NC(=O)c3ccc(C)cc3)cc1)CC2 | 692 | 525 | 260 | 
COc1cc2c(cc1OC)CN(CCc1ccc(NC(=O)c3cnc4ccccc4c3)cc1)CC2 | 646 | 145 |  | 
COc1cc2c(cc1OC)CN(CCc1ccc(NC(=O)c3cc4ccccc4cn3)cc1)CC2 | 851 | 776 |  | 
COc1cc2c(cc1OC)CN(CCc1ccc(NC(=O)c3cccc(Br)c3)cc1)CC2 | 2290 | 3240 |  | 
COc1cc2c(cc1OC)CN(CCc1ccc(NC(=O)c3cccc4ccccc34)cc1)CC2 | 1410 | 1860 |  | 
COc1cc2c(cc1OC)CN(CCc1ccc(NC(=O)c3ccc4ccccc4c3)cc1)CC2 | 776 | 776 |  | 
O=C(Nc1ccc(CCN2CCc3ccccc3C2)cc1)c1ccc([N+](=O)[O-])cc1 | 4470 | 5010 |  | 
COc1cc2c(cc1OC)CN(CCc1ccc(NC(=O)c3ccc(N)cc3)cc1)CC2 | 4070 | 7080 |  | 
COc1cc2c(cc1OC)CN(CCc1ccc(NC(=O)c3ccccc3NC(=O)c3ccccc3)cc1)CC2 | 724 |  | 300 | 250
COc1cc2c(cc1OC)CN(CCc1ccc(NC(=O)c3cc(OC)c(OC)cc3NC(=O)c3cnc4ccccc4c3)cc1)CC2 |  | 126 | 64 | 38
COc1cc2c(cc1OC)CN(CCc1ccc(NC(=O)c3ccccc3Br)cc1)CC2 | 4270 | 3470 |  | 
COc1cc2c(cc1OC)CN(CCc1ccc(NC(=O)c3ccc4ncccc4c3)cc1)CC2 | 724 | 741 |  | 
COc1cc2c(cc1OC)CN(CCc1ccc(NC(=O)c3cccnc3)cc1)CC2 | 4170 | 3160 |  | 
Nc1ccc(C(=O)Nc2ccc(CCN3CCc4ccccc4C3)cc2)cc1 | 13500 | 4170 |  | 
O=C(Nc1ccccc1C(=O)Nc1ccc(CCN2CCc3ccccc3C2)cc1)c1cnc2ccccc2c1 | 447 |  | 320 | 
COc1cc2c(cc1OC)CN(CCc1ccc(NC(=O)c3ccccc3N)cc1)CC2 | 9120 | 11200 |  | 
COc1cc2c(cc1OC)CN(CCc1ccc(NC(=O)c3ccccc3[N+](=O)[O-])cc1)CC2 | 4790 | 5500 |  | 
COc1cc2c(cc1OC)CN(CCc1ccc(NC(=O)c3ccccc3NC(=O)c3cnc4ccccc4c3)cc1)CC2 | 240 | 166 | 50 | 87
COc1cc2c(cc1OC)CN(CCc1ccc(NC(=O)c3ccc([N+](=O)[O-])cc3)cc1)CC2 | 1100 | 1380 |  | 
